From US20110212899A1, “Corneal Neuritogenesis Promoter Containing Pacap and Its Derivative” (priority 2004, published 2011)
Where no end group is shown, it is not given here.

How the values were obtained:
[1] = tested on: rabbit eye (tear secretion); assay: Promoting effect on tear secretion in a rabbit (Schirmer method, Test Example 6); type: in vivo; conditions: 0.1% eye drops, 50 μL; from 20 minutes to 120 minutes after administration
Protocol: Changes in the tear amount when PACAP27 and peptide 24 were administered to the eyes of a rabbit were examined. Japanese white rabbits with a body weight of 1.5 to 2.0 kg purchased from Kitayama Labes Co., Ltd were used. The animals were each put in separate cages placed in a room wherein a temperature of 23±3° C. and a humidity of 55±10% were kept and a light was on for 12 hours per day (lighting at 8:00 and lights-out at 20:00), and raised after arrival until the final day of the test. The animals were given 100 g of solid feed (Labo R Stock, Nosan Corporation) per day, and could freely have tap water. PACAP27 and peptide 24 were used as test substances. […] The amount of tear secreted was measured at 8.5 minutes before administration, and at 10 minutes, 20 minutes, 30 minutes, 60 minutes and 120 minutes after the administration by a Schirmer method. […] After the tear in the lower eyelid conjunctival sac was wiped with filter paper, the amount of tear secreted in 1 minute was measured using a Schirmer's test strip (Showa Yakuhin Kako Co.). The difference between the tear secretion amount at each time point after administration of the eye drops and the tear secretion amount before administration of the eye drops was calculated as a change in the tear amount caused by the test substance. […]

[2] = tested on: cultured rabbit trigeminal nerve cells; assay: Promoting effect on neuritogenesis in cultured rabbit trigeminal nerve cells (2) (Test Example 4); type: cell-based; conditions: cultured for 48 hours, control group 20.7%
Text: Japanese white rabbits (2 to 3 days old) purchased from Kitayama Labes Co., Lid. were used.
Rabbit trigeminal nerve cells were isolated according to a method reported by Chan et al. (Kwan Y. Chan and Richard H. Haschke, Exp. Eye Res. 41: 687-699, 1985). The rabbit was subjected to cardiac perfusion with physiological saline under ether anesthesia. A trigeminal ganglion was excised from the rabbit, and then dispersed in a nerve dispersion liquid (Sumitomo Bakelite Co., Ltd.) to prepare trigeminal nerve cells. The trigeminal nerve cells were cultured in Neurobasal medium (Invitrogen Corp) supplemented with B27 Supplement (Invitrogen Corp; final concentration: 2% v/v) and L-glutamine (Invitrogen Corp; final concentration: 1 mM) under 5% CO2 and 95% air at a humidity of 100% and a temperature of 37° C. […]
For evaluating neuritogenesis in the cultured rabbit trigeminal nerve cells, the length of the longest neurite and the major axis of the cell body in the stained cell images scanned into the computer were measured using image analysis software (Image-Pro Plus ver. 4.0, Planetron, Inc.) The cells in 3 wells for each group were measured. […] The proportion (%) of the neurite forming cells in the total cell number was calculated (Otori, Y., Wei, J. Y., Barnstable, C. J., Invest. Opthalmol. Vis. Sic., (1998)39, 972-981). […]

[3] = tested on: Human normal corneal epithelial cells; assay: Promoting effect on proliferation of cultured corneal epithelial cells (Test Example 8); type: cell-based; conditions: final concentration (10^−5 M), cultivation for 8 days; p<0.05
Protocol: Human normal corneal epithelial cells (Kurabo Industries Ltd., strain No. 4C0466) were used. Peptide 24 and PACAP27 were used as test substances. The test substance was dissolved in distilled water at a concentration 1000 times of the final concentration (10^−5 M), and the concentration was then adjusted to twice the final concentration with a serum-free proliferation medium for human corneal epithelial cells (EpiLife (−), Kurabo Industries Ltd.). After thawing freeze-preserved human normal corneal epithelial cells, the cells were seeded according to a conventional method and cultured for 7 days at 37° C. in 5% CO2. After the cultivation, the cells were harvested by a conventional method, and were suspended in EpiLife (−) at a concentration of 1.0×10^4 cells/mL. […] The number of the cells was counted based on the ability to reduce MTT (3-(4,5-dimethyl-2-thiazolyl)-2,5-diphenyl-2H-tetrazolium bromide) according to the protocol of Cell Counting Kit-8 (Dojindo Laboratories). […] The plate was incubated at 37° C. in 5% CO2 for 2 hours and then, the absorbance was measured at 450 nm using a microplate reader. Average values of absorbance in the control group and each test substance-addition group were calculated, and the values were compared between the control group and each test substance-addition group by a Dunnett's multiple comparison test (one-tailed). […]

His-Ser-Asp-Ala-Ile-Phe-Thr-Asp-Ser-Tyr-Ser-Arg-Tyr-Arg-Arg-Gln-Leu-Ala-Val-Arg-Arg-Tyr-Leu-Ala-Ala-Val-Leu-Gly-Arg-Arg-NH2 (HSDAIFTDSYSRYRRQLAVRRYLAAVLGRR-NH2) [Peptide 24]
tear secretion amount compared with vehicle solution-administration group [1]: significant increase
proportion (%) of the neurite forming cells in the total cell number ([2]; 0.1 μM): 42.5%
proportion (%) of the neurite forming cells in the total cell number ([2]; 1 μM): 51.4%
cell number (MTT reduction ability) compared with control group [3]: increased
